What was measured:
SaOS cells = assay: Apoptosis of SaOS spheroids with Lipo-LPS-activated THP-1 macrophages and/or etoposide (IncuCyte Caspase-3/7); assay type: cell-based, rat; conditions: 5 μM etoposide or macrophages stimulated 16 h with 100 ng/mL Lipo-LPS, fluorescence arbitrary units, FIG. 6
From the text: The SaOS cells are […] osteosarcoma cells. This is a malignant bone tumour. These cells can be cultured according to a 3D spheroid model adapted to tumour cells.
THP-1 are human monocytic cells derived from an acute monocytic leukemia.
To perform cellular death monitoring of these SaOS cells, the fluorescent product IncuCyte® Caspase-3/7 has been used to evaluate the number of apoptosis cells.
The results are shown in FIG. 6, in fluorescence arbitrary units.

[1] = tested on: RL lymphoma cells (CD20+ human B lymphoma cells); assay: Tumour growth monitoring in RL cells xenografted mice; assay type: in vivo, Scid CB17 mice; conditions: 46 days after the tumour graft; 30 mg/kg, one injection per week; FIG. 1
From the text: During this experiment, six groups of Scid CB17 mice have been used. Each group is comprised at six mice.
Group 1=control (no treatment)

| Compound | Apoptosis rate of SaOS cells with respect to the control (SaOS cells) | Apoptosis rate of SaOS cells with respect to the control (SaOS cells; listed as epotoside) | Tumour volume relative to control mice [1] |
| --- | --- | --- | --- |
| COc1cc([C@@H]2c3cc4c(cc3[C@@H](O[C@@H]3O[C@@H]5CO[C@@H](C)O[C@H]5[C@H](O)[C@H]3O)[C@H]3COC(=O)[C@H]23)OCO4)cc(OC)c1O [etoposide] | induces cancer cell apoptosis | significantly increased with respect to the control | – |
| rituximab | – | – | twice lower |

From patent publication US12433838B2, “Liposomal formulation of bacterial lipopolysaccharide combined with a cytotoxic agent, and use thereof in anti-tumour therapy” (priority 2017, dated 2025)
